Earlier results, collected in US20200246411A1, “ANTI-DIARRHOEAL HERBAL COMPOSITIONS” (SRH NUTRITION LLP, priority 2017, published 2020).

Details: conventional drug use

Row | Compound | disadvantages / adverse reactions
1 | CC(=O)SCC(Cc1ccccc1)C(=O)NCC(=O)OCc1ccccc1 (centres unmarked) [Racecadotril] | Cause some adverse reactions such as hypokalemia, bronchospasm,
2 | CCOC(=O)C1(c2ccccc2)CCN(CCC(C#N)(c2ccccc2)c2ccccc2)CC1 [Diphenoxylate] | Therapeutic doses induce adverse reactions in the CNS (confusion,
3 | [Bi] [Bismuth] | Causes adverse reactions (dizziness, cephalea, constipation, dark stools,
4 | CN(C)C(=O)C(CCN1CCC(O)(c2ccc(Cl)cc2)CC1)(c1ccccc1)c1ccccc1 [Loperamide] | Frequent adverse reactions induced are hypersensibility reactions
5 | COc1ccc2c3c1O[C@H]1[C@@H](O)C=C[C@H]4[C@@H](C2)N(C)CC[C@@]341 [Codeine] | Produces secondary effects such as nausea, dizziness and acts against
